How the values were obtained:
Format in all cases: cell-based, rat
p27 = p27 protein levels in hair cell-damaged (tobramycin) cochlear explants by western blot; conditions: 3 uM, 24 hours, after 1 mM tobramycin for two days, vs vehicle (DMSO) (FIG. 4)
Procedure: (§1) Postnatal day 5 rat cochlea were collected and cultured with 1 mM tobramycin for two days to kill hair cells. Cultures were then treated with 3 uM bromo benzyl ellipticinium dissolved in DMSO or DMSO alone (negative control) for 24 hours.
(§2) Cochlear explant extracts were analyzed by western blotting. Detergent-solubilized extracts were electrophoresed on a polyacrylamide gel, and the separated denatured proteins transferred to a PVDF membrane. Antibodies to p27, p57, phosphorylated Histone H3, phosphorylated p130 and the house-keeping gene, β-actin were used with infrared dye-conjugated secondary antibodies and quantified by fluorescence. Levels of p27, p57, phosphorylated Histone H3, and phosphorylated p130 were normalized to the beta-actin signal before comparing treated and control samples.

[1] = test system: hair cell-damaged cochlear explants; test: cell proliferation (phosphorylated Histone H3) in hair cell-damaged cochlear explants by western blot; conditions: 3 uM, 24 hours, after 1 mM tobramycin for two days, vs vehicle (DMSO) (FIG. 4)
Procedure: as §1, §2

[2] = test system: hair cell-damaged cochlea/modiolus explants; test: proliferating supporting cells (BrdU+/Sox2+) in hair cell-damaged cochlea/modiolus explants, confocal microscopy; conditions: three days, after 1 mM tobramycin for three days
Procedure: Postnatal day 5 rat cochlea cochlea/modiolus explants were collected and cultured with 1 mM tobramycin for three days to kill hair cells. Cultures were then treated for three days with DMSO, 3 uM bromo benzyl ellipticinium, 60 uM CHIR99021, or both. Tissues were fixed with 4% paraformaldehyde, and cochlea were removed from surrounding tissue and immunostained with anti-SOX2 and anti-BrdU antibodies. Whole mount confocal microscopy was used to identify proliferating supporting cells (Brdu+/Sox2+) counted in 300 um of the basal-most cochlea. Cochlea were analyzed in triplicates per treatment group.

Compound | p27 protein levels (p27) | cell proliferation [1] | BrdU+/Sox2+ ells/300 μm of Basal Cochlea (Mean ± SD, n = 3) ([2]; 3 μM) [ells/300 μm] | BrdU+/Sox2+ ells/300 μm of Basal Cochlea (Mean ± SD, n = 3) ([2]; 60 μM) [ells/300 μm]
Cc1c2cc[n+](Cc3ccccc3)cc2c(C)c2c1[nH]c1ccccc12 [bromo benzyl ellipticinium, Bromo Benzyl Ellipticinium] | reduced | increased | 0 ± 0 | 
Cc1c[nH]c(-c2cnc(NCCNc3ccc(C#N)cn3)nc2-c2ccc(Cl)cc2Cl)n1 [CHIR99021, reference compound] |  |  |  | 0 ± 0

Source: patent publication US9370510B2, “Small molecule compounds to treat hearing loss” (FATE THERAPEUTICS, INC., priority 2012, dated 2016)
